This is an account of results in patent publication EP4588485A1, “PHARMACEUTICAL COMBINATION OF FAK INHIBITOR AND TOPOISOMERASE INHIBITOR AND USE THEREOF” (Inxmed (Nanjing) Co., Ltd., priority 2022, dated 2024).

The test system of series [1] is MDA-MB-231 cells. In words: Apoptosis by Annexin V flow cytometry after FAK siRNA silencing plus topoisomerase inhibitor. The series is classed as cell-based. Conditions: FAK siRNA 50 nM for 24 hours, then 2 µM drug for 48 hours; FAK silencing group compared with control siRNA group; Fig. 1 / Fig. 3. In general terms: A flow cytometer gives signals particle by particle.
Description: The siRNA technology was used in the in vitro assay to reduce the expression level of FAK, and combined with Etoposide for 48 hours; flow cytometry was used to detect apoptosis in control and FAK silenced cells.
Assay antibodies: recombinant Alexa Fluor® 647 fluorescent Anti-Calreticulin antibody (Abcam, ab196159), Annexin V apoptosis detection kit (Invitrogen, A35110).
MDA-MB-231 cells were transfected with control siRNA or FAK siRNA at a final concentration of 50 nM, respectively. After the transfection for 24 hours, the cells were treated with 2 µM of Etoposide for 48 hours. The cells were stained using Annexin V kit and detected by flow cytometry. The early and late apoptotic values were counted, compared with those of the DMSO control group, and plotted using Graphpad 8.0.
The siRNA technology was used in the in vitro assays to reduce the expression level of FAK, and combined with Teniposide for 48 hours; flow cytometry was used to detect apoptosis in control and FAK silenced cells. […]
MDA-MB-231 cells were transfected with control siRNA or FAK siRNA at a final concentration of 50 nM, respectively. […] The cells were stained using Annexin V kit and detected by flow cytometry. The early and late apoptosis values were counted, compared with those of the DMSO control group, and plotted using Graphpad 8.0.

The test system of series [2] is MDA-MB-231 cells. In words: Calreticulin release and exposure by flow cytometry after FAK siRNA silencing plus topoisomerase inhibitor. Type of series: cell-based. Conditions: FAK siRNA 50 nM for 24 hours, then 2 µM drug for 48 hours; compared with control siRNA; Fig. 2 / Fig. 4.
Description: The siRNA technology was used in the in vitro assay to reduce the expression level of FAK, and combined with Etoposide for 48 hours. Flow cytometry was used to detect the expression of Calreticulin, the main target of ICD.
MDA-MB-231 cells were transfected with control siRNA or FAK siRNA at a final concentration of 50 nM, respectively. After the transfection for 24 hours, the cells were treated with 2 µM of Etoposide for 48 hours. The cells were fluorescent stained with Calreticulin antibody, and the staining results were analyzed by flow cytometry.
The siRNA technology was used in the in vitro assay to reduce the expression level of FAK, and combined with Teniposide for 48 hours. Flow cytometry was used to detect the expression of Calreticulin, the main target of ICD.
MDA-MB-231 cells were transfected with control siRNA or FAK siRNA at a final concentration of 50 nM, respectively. After the transfection for 24 hours, the cells were treated with 2 µM Teniposide for 48 hours. The cells were fluorescent stained with Calreticulin antibody, and the staining results were analyzed by flow cytometry.
For series [3], the system named is CT26 cells. In words: CCK-8 cell proliferation inhibition. Type of series: cell-based. The note with it: Mus musculus, single drug, 72 hours, CCK8, OD450.
Description: CT26 cells were cultured with RPMI-1640 (Shanghai Basalmedia, catalog number: L210KJ, batch number: F210916) + 10% FBS (Gibco, catalog number: 10099-141c, batch number: 2158737cp), and passaged twice. When the cells were in good condition, they were placed in a 96-well plate, 3000 cells/well. […] 10 drug concentrations were set. The first concentration was 30 µM, which was serially diluted 5-fold, and the last one was the control, with the drug concentration of 0. Each drug concentration was run in triplicate. At the same time, another group of cells was established with the same drug concentration as that in the above method.
10 µl of CCK8 detection reagent (Cellorlab, classification number: CX001M, batch number: 2571100) was added to each well, and the plate was incubated in a 5% CO2 incubator at 37 °C for 2-4 hours. Then the plate was read using microplate reader OD450 (chemiluminescence method). […]
CT26 cells were digested with trypsin, and then the cells were collected and counted. […]
After 72 hours of drug action, 10 µL of CCK-8 detection reagent was added to each well of the cell plate using a multi-channel pipette, and then the cell plate was incubated in a 37 °C, 5% CO2 incubator for another 4 hours. Finally, the absorbance of each well at 450 nm was measured using an ELISA reader. […]
In series [4] the test system is CT26 cells. In words: Microscope observation of cell status after 48 hours of drug action. The series is classed as cell-based, mouse. The note with it: IN10018 5 µM; for cell status observed under a microscope: Etoposide 20 µM, Fig. 6; for cell status observed under a microscope (cell death / cell viability): Teniposide 4.8 µM. As to the method: CT26 cells (Institute of Cell Biology, Chinese Academy of Sciences) were cultured with RPMI-1640 (Shanghai Basalmedia, catalog number: L210KJ, batch number: F210916) + 10% FBS (Gibco, catalog number: 10099-141c, batch number: 2158737cp), and passaged twice. When the cells were in good condition, they were placed in a 24-well plate. After 24 hours of cell spreading, four groups were set up. The first group was the control group, in which culture medium was added; the second group was IN10018 at a concentration of 5µM; the third group was Etoposide (source: MCE, classification number: 33419-42-0, batch number: 113741) with a concentration of 20 µM; and the fourth group was a combination group of IN10018 (5 µM) and Etoposide (20 µM). The drugs were mixed and cultured in a 5 % CO2 incubator at 37°C for 48 hours.
After 48 hours of drug action, the cells were observed and photographed under a microscope. The photos were saved. Then the cells were collected for flow cytometry, and the cells were washed twice with flow buffer (PBS + 2% FBS). 0.5 µl of AF647 anti-Calreticulin antibody (abcam, catalog number: ab196159, batch number: CR33676773) was added to each well, and fully mixed. The cells were incubated at 4 °C for 20 minutes in the dark. After 20 minutes, the cells were washed twice with flow buffer (PBS + 2% FBS). Cell apoptosis detection kit (Beyotime, catalog number: CL062L, batch number: 021921210811) was used. 195 µl of Annexin-V-FITC binding solution was added, and the cells were gently mixed. 5 µl of annexin-V-FITC antibody was added, and the mixture was gently mixed. 10 µl of PI dye was added and gently mixed. The mixture was incubated at room temperature in the dark for 15 minutes, and then analyzed on a flow cytometer.
After 48 hours of drug action, the cells were photographed using a microscope, then trypsinized and collected for flow cytometry staining.

The test system of series [5] is MC38 mouse colorectal cancer cells. In words: In vivo antitumor efficacy in subcutaneous allograft tumor model. Further details: species or system C57BL/6 mice. As to the method:
Table 12: Animal groups and dosing regimens for in vivo efficacy assays
(§1) • 1. N: number of mice in each group; • 2. Dosing volume: 10 mL/kg based on the mouse body weight. If the body weight dropped by more than 15%, the administration of the animals would be stopped; When the body weight recovered to 90%, the administration would be resumed. • 3. The Etoposide dose was increased to 6 mg/kg on the 6th day after grouping and dosing;
Colorectal cancer cells MC38 (from Nanjing Cobioer Biotechnology Co., Ltd., article number: CBP60825) were maintained and passaged by InxMed (Nanjing) Co., Ltd. Cells were cultured in monolayer in vitro under the following conditions: DMEM medium with 10% fetal bovine serum, in a 37°C, 5% CO2 incubator. Cells were routinely digested and passaged two to three times a week using trypsin-EDTA. When the cells were in the exponential growth phase and the adherent confluence reached 80%-90%, the cells were harvested, counted, and then inoculated.
0.1 mL of cell suspension containing 2×10^5 cells was subcutaneously inoculated on the right back of each mouse. When the tumor volume reached about 50 mm^3 (9th day after cell inoculation), the mice were randomly divided into groups and administered according to the tumor volume. Table 13: Test substance and control solvent preparation
The assay index was to examine whether the tumor growth was inhibited, delayed, or cured. Tumor diameters were measured three times a week using calipers. The tumor volume was calculated using the formula: V = 0.5 × a × b^2, where a and b represent the long and short diameters of the tumor, respectively.
The anti-tumor efficacy of the compound was evaluated by TGI (%), which reflected the tumor growth inhibition rate. Based on the tumor volume on the first day after grouping, the tumor growth inhibition rate TGI (%) was calculated according to the following formula: TGI (%) = [1 - (average tumor volume of an administration group - average tumor volume of the administration group at the beginning of treatment) / (average tumor volume of the solvent control group - average tumor volume of the solvent control group at the beginning of treatment)] × 100%.
Statistical analysis was based on tumor volume at the end of the assay using Prism Graphpad software. Comparisons between multiple groups were analyzed using Two-way ANOVA and Fisher's LSD test. A P-value of less than 0.05 was considered statistically significant.
After cell inoculation, tumor growth was observed every day. On the 9th day after inoculation, mice were grouped based on tumor volume. The average tumor volume at enrollment was approximately 50 mm^3.

The conditions of series [6]: day 17 after group administration, 6 mice per group; deaths due to tumor rupture. As to the method: as §1
The formulation and any modifications of this assay protocol had been assessed and approved by the IACUC of ArrayBridge. The use and welfare of assay animals were carried out in accordance with AAALAC regulations. The health status and mortality of animals were monitored daily, with routine checks including observation of tumor growth and the impact of drug treatment on the animals' daily behavior, such as activity, food and water intake (estimated by visual inspection), changes in body weight, physical signs, or any other abnormalities. The number of animal deaths and side effects in each group were recorded based on the number of animals in each group.
The assay was carried out according to the dosing regimen. During the assay, the animals' activities such as eating and drinking were observed every day, and the body weight of the animals was recorded three times a week. […]

Each structure is given as a SMILES string.

As a reminder, the IC50 is the concentration at which inhibition is half-maximal. The term TGI denotes how far tumour growth fell short of that in controls. Low readings indicate a weaker effect on the tumour, high ones a stronger effect on the tumour. Consider `COc1cc([C@@H]2c3cc4c(cc3[C@@H](O[C@@H]3O[C@@H]5CO[C@@H](C)O[C@H]5[C@H](O)[C@H]3O)[C@H]3COC(=O)[C@H]23)OCO4)cc(OC)c1O` [Etoposide], for which the “apoptosis (early and late apoptotic values)” value in the series on MDA-MB-231 cells [1] was “significantly enhanced”. In addition, the “release and exposure of Calreticulin” value in the series on MDA-MB-231 cells [2] is given as “significantly enhanced”. Further, in the series on CT26 cells [3], the IC50 is 24.4 µM. Also, in the series on CT26 cells [4], the “cell status observed under a microscope” value is given as “poor” and the “cell status observed under a microscope (cell death / cell viability)” value is “obvious”. Besides, the “Tumor volume on day 17” value in series [5] (17th day after group administration, Etoposide 3 mg/kg PO QD (6 mg/kg from the 6th day), IN10018 25 mg/kg PO QD, PD-L1 antibody 5 mg/kg i.p. BIW, mean ± SD) was 2420.2±1377.3 mm^3. In addition, in series [5] (baseline on the day of grouping, mean ± SD, 6 mice per group), the “Tumor volume on day 0” value is on record as 48.2 ± 10.2 mm^3. In series [5] (day 17 vs. control group, Etoposide 3 mg/kg PO QD (6 mg/kg from the 6th day), IN10018 25 mg/kg PO QD, PD-L1 antibody 5 mg/kg i.p. BIW), this compound returned a TGI of 9.5%. Besides, the “inhibitory effect on tumor growth” value in series [5] (in words, compared with the blank control group, whole dosing cycle, Fig. 11) was “no inhibitory effect”. In series [6], the “Animal Survival” value is reported as 5/6.
As to `COc1cc(C(=O)NC2CCN(C)CC2)c(F)cc1Nc1ncc(C(F)(F)F)c(Oc2cccc3c2C(=O)N(C)C3)n1` [IN10018], in the series with CT26 cells [4], the “cell status observed under a microscope” value is given as “good” and the “cell status observed under a microscope (cell death / cell viability)” value was “better”.
For `COc1cc([C@@H]2c3cc4c(cc3[C@@H](O[C@@H]3O[C@@H]5CO[C@@H](c6cccs6)O[C@H]5[C@H](O)[C@H]3O)[C@H]3COC(=O)[C@H]23)OCO4)cc(OC)c1O` [Teniposide], in the series on MDA-MB-231 cells [1], the “apoptosis (early and late apoptotic values)” value was “significantly enhanced”. Moreover, the “release and exposure of Calreticulin” value with MDA-MB-231 cells [2] is given as “significantly enhanced”. This compound also came in with an IC50 with CT26 cells [3] of 0.818 µM.
